Assay results: the supplement of paper PMC13380429

Experiments:
Settings in all cases: 72 h
Vero E6 [1] = assay: relative viability EC50 (midpoint between 100% and the lowest measured viability); higher = less toxic
Calu-3 [2] = assay: as above
U2OS [3] = assay: as above
HepG2 [4] = assay: as above
Caco-2 [5] = assay: as above
Vero E6 [6] = assay: drug sensitivity score (DSS) for viability; higher = more toxic; extreme values may be limits of the assay
Calu-3 [7] = assay: as above
U2OS [8] = assay: as above
HepG2 [9] = assay: as above
Caco-2 [10] = assay: as above
Vero E6 [11] = assay: cell viability relative to DMSO; higher = less toxic
Calu-3 [12] = assay: as above
U2OS [13] = assay: as above
HepG2 [14] = assay: as above
Caco-2 [15] = assay: as above

Row | SMILES | relative viability EC50 (Vero E6 [1]) | relative viability EC50 (Calu-3 [2]) | relative viability EC50 (U2OS [3]) | relative viability EC50 (HepG2 [4]) | relative viability EC50 (Caco-2 [5]) | drug sensitivity score (Vero E6 [6]) | drug sensitivity score (Calu-3 [7]) | drug sensitivity score (U2OS [8]) | drug sensitivity score (HepG2 [9]) | drug sensitivity score (Caco-2 [10]) | cell viability (Vero E6 [11]; 1 nM) | cell viability (Vero E6 [11]; 10 nM) | cell viability (Vero E6 [11]; 100 nM) | cell viability (Vero E6 [11]; 1000 nM) | cell viability (Vero E6 [11]; 10000 nM) | cell viability (Calu-3 [12]; 1 nM) | cell viability (Calu-3 [12]; 10 nM) | cell viability (Calu-3 [12]; 100 nM) | cell viability (Calu-3 [12]; 1000 nM) | cell viability (Calu-3 [12]; 10000 nM) | cell viability (U2OS [13]; 1 nM) | cell viability (U2OS [13]; 10 nM) | cell viability (U2OS [13]; 100 nM) | cell viability (U2OS [13]; 1000 nM) | cell viability (U2OS [13]; 10000 nM) | cell viability (HepG2 [14]; 1 nM) | cell viability (HepG2 [14]; 10 nM) | cell viability (HepG2 [14]; 100 nM) | cell viability (HepG2 [14]; 1000 nM) | cell viability (HepG2 [14]; 10000 nM) | cell viability (Caco-2 [15]; 1 nM) | cell viability (Caco-2 [15]; 10 nM) | cell viability (Caco-2 [15]; 100 nM) | cell viability (Caco-2 [15]; 1000 nM) | cell viability (Caco-2 [15]; 10000 nM)
1 | CCC(CC)n1ccc2c(C(=O)NCc3c(C)cc(C)[nH]c3=O)cc(C#N)cc21 [EI1] | > 10 µM | > 10 µM | > 10 µM | > 10 µM | > 10 µM | 0 | 0 | 0 | 0 | 0 | 105% | 100% | 107% | 97.5% | 104% | 94.2% | 96.6% | 101% | 109% | 102% | 98.7% | 99.4% | 93.8% | 96.1% | 101% | 90.7% | 92.3% | 101% | 93.7% | 97.6% | 105% | 95.1% | 97.2% | 95.4% | 93.6%
2 | CCOc1cccc(NC(=O)c2ccc(N3CCCC3)c(C(F)(F)F)c2)c1 [EPPTB] | > 10 µM | > 10 µM | > 10 µM | > 10 µM | > 10 µM | 0 | 0.2 | 0 | 0 | 1.6 | 101% | 102% | 97.3% | 95.5% | 101% | 98.9% | 99.5% | 98.3% | 102% | 83.9% | 101% | 99.2% | 97.4% | 99.1% | 90.9% | 90.9% | 96.2% | 96.4% | 91.5% | 97.5% | 106% | 101% | 89% | 92.7% | 86.4%
3 | CCCCC(=O)O[C@H]1CC[C@H]2[C@@H]3CCc4cc(O)ccc4[C@H]3CC[C@]12C [ESTRADIOL VALERATE] | > 10 µM | > 10 µM | > 10 µM | > 10 µM | > 10 µM | 0 | 0.6 | 0 | 0 | 0.1 | 101% | 102% | 103% | 99.5% | 100% | 99.8% | 104% | 96.4% | 97.8% | 83.8% | 106% | 108% | 103% | 106% | 96.5% | 109% | 106% | 101% | 97.6% | 108% | 104% | 94.6% | 97% | 105% | 85.8%
4 | C[C@@H](NC(=O)[C@@H](N)Cc1ccc(O)cc1)C(=O)NCC(=O)N(C)[C@@H](Cc1ccccc1)C(=O)N[C@H](CO)CC[S+](C)[O-] (stereo not given in full) [FK-33-824] | > 10 µM | > 10 µM | > 10 µM | > 10 µM | > 10 µM | 0 | 0 | 0 | 0 | 0 | 99.5% | 97.5% | 93.3% | 97% | 107% | 98.7% | 94.1% | 99.4% | 92.1% | 92.6% | 98.8% | 106% | 98.6% | 101% | 100% | 98.9% | 93.7% | 109% | 101% | 100% | 98% | 95.7% | 90.7% | 96.1% | 102%
5 | CCNC(=O)Nc1ccc(-c2nc3c(c(N4CCOC[C@@H]4C)n2)CCN(C2COC2)C3)cc1 [GDC-0349] | 1.46 µM | 0.211 µM | 1.17 µM | 0.6 µM | 0.295 µM | 5.6 | 13.7 | 8.3 | 10.4 | 11.1 | 106% | 105% | 94.2% | 81.2% | 40.3% | 101% | 100% | 79% | 39.5% | 29.5% | 102% | 98.9% | 94.6% | 66.2% | 21.1% | 114% | 99.8% | 95.9% | 49% | 26.3% | 107% | 95.7% | 82.3% | 51.7% | 35%
6 | CC(C)(Sc1ccc(CCN(CCCCC2CCCCC2)C(=O)NC2CCCCC2)cc1)C(=O)O [GW-7647] | > 10 µM | > 10 µM | > 10 µM | > 10 µM | > 10 µM | 0 | 0 | 0 | 0 | 0 | 97.3% | 100% | 91.1% | 97.7% | 110% | 97.9% | 110% | 100% | 94.6% | 100% | 101% | 101% | 105% | 96.2% | 98.2% | 87% | 95.3% | 99.1% | 87% | 101% | 87.7% | 101% | 98.3% | 104% | 103%
7 | CCn1c2ccccc2c2cc(CNCc3ccccc3OC)ccc21 [HLCL-61] | > 10 µM | > 10 µM | > 10 µM | > 10 µM | > 10 µM | 0.1 | 0 | 0 | 1.1 | 0 | 91.3% | 93.2% | 88.2% | 88.8% | 93.5% | 111% | 99.5% | 95.7% | 106% | 87.9% | 100% | 96.6% | 99.2% | 102% | 94.9% | 106% | 95.4% | 93.5% | 95.6% | 79.2% | 103% | 92% | 94.6% | 107% | 101%
